The text below walks through data of BindingDB's records for doi:10.3109/14756366.2011.591290 (Agri Ibrahim Cecen University, 2012).

The structures appear in SMILES notation. pKi: −log10 of the molar value.

Some targets named below: Carbonic anhydrase 1 (Homo sapiens, UniProt P00915); Carbonic anhydrase 6 (Homo sapiens, UniProt P23280); Carbonic anhydrase 2 (Homo sapiens, UniProt P00918).
What all share (experiment): CA Activity Assay
Details in all cases: pH 7.4; 25 °C

By pKi is commonly meant −log10 of the Ki, conventionally taken in molar units. Higher therefore signals a low Ki.

Chain of Carbonic anhydrase 6 (P23280 whole entry): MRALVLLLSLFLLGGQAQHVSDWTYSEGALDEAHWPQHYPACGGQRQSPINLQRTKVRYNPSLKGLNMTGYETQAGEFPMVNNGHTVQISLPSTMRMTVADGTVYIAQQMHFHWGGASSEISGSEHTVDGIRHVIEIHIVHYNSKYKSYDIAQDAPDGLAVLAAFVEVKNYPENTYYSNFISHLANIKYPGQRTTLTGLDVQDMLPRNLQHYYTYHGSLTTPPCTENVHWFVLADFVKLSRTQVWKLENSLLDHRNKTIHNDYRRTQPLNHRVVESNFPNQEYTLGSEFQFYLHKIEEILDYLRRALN
Chain of Carbonic anhydrase 1 (P00915 whole entry): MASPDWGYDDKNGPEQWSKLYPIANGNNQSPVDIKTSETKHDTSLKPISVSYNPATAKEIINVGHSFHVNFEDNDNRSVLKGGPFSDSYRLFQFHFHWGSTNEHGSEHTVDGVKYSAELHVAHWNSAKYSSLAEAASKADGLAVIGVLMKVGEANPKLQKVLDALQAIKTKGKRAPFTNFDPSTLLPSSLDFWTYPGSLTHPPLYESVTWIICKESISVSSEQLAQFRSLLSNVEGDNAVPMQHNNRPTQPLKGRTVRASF

Regarding `NC1Cc2ccc(Br)cc2C1` (stereo unspecified) [CA inhibitor, 6], the pKi on Carbonic anhydrase 1 was 3.79; on Carbonic anhydrase 6 it was 6.24; on Carbonic anhydrase 2 it was 3.84.
For the compound `NC1CCc2c(ccc(O)c2O)C1` (stereo unspecified) [6-Amino-5,6,7,8-tetrahydro-naphthalene-1,2-diol], the negative logarithm of the Ki (pKi) at Carbonic anhydrase 1 is 4.35; at Carbonic anhydrase 6, 6.01; at Carbonic anhydrase 2 it was 6.42.
For `NC1Cc2cc(Br)c(Br)cc2C1` [CA inhibitor, 5], the pKi on Carbonic anhydrase 6 was 6.11; at Carbonic anhydrase 2, 3.33.
Regarding `NC1CCc2cc(O)c(O)cc2C1` (stereo unspecified), the negative logarithm of the Ki (pKi) is 4.39 on Carbonic anhydrase 1, 5.94 on Carbonic anhydrase 6 and 6.36 at Carbonic anhydrase 2.
